# Where a name gives a salt, the structure may show the parent alone.
# Assays:
# [1] = target: T1, ABCG2 (Homo sapiens, UniProt Q9UNQ0); details: literature (refs 8, 10); cited from earlier work
# T1 sequence (Q9UNQ0 1-655): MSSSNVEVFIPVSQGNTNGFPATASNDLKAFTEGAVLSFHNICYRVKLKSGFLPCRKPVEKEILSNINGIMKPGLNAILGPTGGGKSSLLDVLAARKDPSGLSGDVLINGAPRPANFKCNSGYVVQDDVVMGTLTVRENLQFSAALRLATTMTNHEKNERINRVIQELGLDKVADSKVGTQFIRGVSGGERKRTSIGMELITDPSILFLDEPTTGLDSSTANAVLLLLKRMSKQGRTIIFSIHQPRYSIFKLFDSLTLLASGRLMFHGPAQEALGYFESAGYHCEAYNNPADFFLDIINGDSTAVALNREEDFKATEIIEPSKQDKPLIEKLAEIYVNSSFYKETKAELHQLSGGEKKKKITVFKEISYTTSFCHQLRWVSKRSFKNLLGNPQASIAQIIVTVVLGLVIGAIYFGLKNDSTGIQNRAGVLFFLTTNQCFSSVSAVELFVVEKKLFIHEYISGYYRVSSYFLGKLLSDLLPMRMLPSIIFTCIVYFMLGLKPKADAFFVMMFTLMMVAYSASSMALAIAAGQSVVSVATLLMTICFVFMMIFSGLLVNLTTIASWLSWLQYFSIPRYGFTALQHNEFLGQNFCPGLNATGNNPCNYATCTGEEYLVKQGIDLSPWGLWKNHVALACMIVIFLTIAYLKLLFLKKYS
# [2] = system: RIF-1 cells; format: cell-based, murine; details: for Increase of intracellular HPPH levels: 0.8 μM HPPH, 10 μM modulator, p<0.01
# Procedure: (§1) Cells were plated in 6-well plates at a density of 3×10^5 cells per well and incubated overnight. […] Cells were cultured for an additional 4 hours, then washed with cold culture medium and with PBS. Photosensitizer levels were determined using Solvable® (Perkin Elmer, Boston, MA) extraction (17). Briefly, the cells were solubilized in 0.5 ml Solvable® at 37° C. overnight. The Solvable® extract then was diluted 1:1 with PBS, the photosensitizer levels were determined by fluorometry, and concentrations were extrapolated from standard curves. Intracellular photosensitizer levels were normalized to intracellular protein content. To study photosensitizer efflux, cells were incubated with photosensitizer for 4 hours, then washed once with cold medium, resuspended in drug-free medium, placed at 37° C. or 4° C. for 1 hour and washed once with cold PBS. Photosensitizer levels were then determined using Solvable® extraction, as above.
# [3] = system: RIF-1 cells; test: In vitro PDT phototoxicity (MTT assay) with ABCG2 modulators; details: for Increase of HPPH-PDT phototoxicity: 10 μM modulator, high light doses
# Procedure: Cells were plated in 96-well plates at a density of 1×10^4 cells per well. […] Cells were then irradiated with a filtered xenon arc lamp (600-700 nm) at a fluence rate of 14 mW/cm^2 for HPPH and BPD-MA, or with a red light (570-700 nm) at a fluence rate of 6.3 mW/cm^2 for ALA and Photofrin. Cell viability was evaluated by the 1,3-(4,5-dimethylthiazol-2-yl)-2,5-diphenyltetrazolium bromide (MTT) assay 48 hours after irradiation.
# [4] = system: RIF-1 tumors
# Procedure: (§2) To determine photosensitizer levels, samples of tumor, skin and muscle tissue were harvested 24 hours after the HPPH administration and dissolved in Solvable at 63° C. overnight. HPPH levels were measured by fluorometry as described above. In other experiments mice were administered ^14C-labelled HPPH and photosensitizer levels in the harvested tissues were determined by scintillation counting. […] After 24 hours, the tumors were treated with 665 nm light from an argon ion laser-pumped dye laser (Spectra Physics, Mountain View CA) with a fluence of 72 J/cm^2 delivered at a rate of 14 mW/cm^2. […] Tumors were measured every 1 to 3 days, and mice were sacrificed when tumor volumes exceeded 400 mm^3.
# [5] = system: HEK-293 R482 cells (ABCG2+); test: HPPH uptake and efflux in ABCG2-transfected cells; format: cell-based
# Text: (§3) In general known cell lines were used. FaDu human hypopharyngeal squamous cell carcinoma, RIF-1 murine radiation-induced fibrosarcoma and Colo 26 murine colon carcinoma cells were obtained from the American Type Culture Collection (ATCC; Manassas, VA). BCC-1/KMC, a human basal cell carcinoma cell line (14), was provided by Dr. Tak-Wah Wong, National Cheng Kung University Hospital, Tainan, Taiwan. HEK-293 cells transfected with either an empty pcDNA3 vector or a pcDNA3 vector containing full-length ABCG2 (HEK-293 pcDNA or HEK-293 […]) were provided by Dr. Susan Bates at the U.S. National Institute of Health, Bethesda, MD.. Cells were plated in 6-well plates at a density of 3×10^5 cells per well and incubated overnight. […] Cells were cultured for an additional 4 hours, then washed with cold culture medium and with PBS. Photosensitizer levels were determined using Solvable® (Perkin Elmer, Boston, MA) extraction (17). Briefly, the cells were solubilized in 0.5 ml Solvable® at 37° C. overnight. The Solvable® extract then was diluted 1:1 with PBS, the photosensitizer levels were determined by fluorometry, and concentrations were extrapolated from standard curves. Intracellular photosensitizer levels were normalized to intracellular protein content. […] Photosensitizer levels were then determined using Solvable® extraction, as above.
# [6] = system: HEK-293 pcDNA cells; test: In vitro PDT phototoxicity (MTT assay) with ABCG2 modulators; format: cell-based; details: 0.8 μM HPPH
# [7] = system: RIF-1 cells; test: Photosensitizer efflux, 1 h in drug-free medium at 37° C. or 4° C.; format: cell-based, murine; details: RIF-1 cells (ABCG2+), 1 h efflux
# Procedure: as §1
# [8] = system: Colo 26 cells; test: as above; format: cell-based, murine; details: Colo 26 cells (ABCG2+), 1 h efflux
# Procedure: as §1
# [9] = system: ABCG2; test: ABCG2 substrate status concluded from efflux and phototoxicity studies; format: cell-based; details: conclusion from efflux and phototoxicity data
# Procedure: as §1
# [10] = system: HEK-293 pcDNA cells (ABCG2-); test: HPPH efflux in empty-vector control cells; format: cell-based; details: HEK293-pcDNA3 cells
# Text: as §3
# [11] = system: BCC-1 cells; test: Photosensitizer efflux, 1 h in drug-free medium at 37° C. or 4° C.; format: cell-based, human; details: BCC-1 cells (ABCG2+), 1 h efflux
# Procedure: as §1
# [12] = system: FaDu cells; test: as above; format: cell-based, human; details: lack ABCG2 expression, 1 h efflux
# Procedure: as §1
# [13] = system: BCC-1 cells; test: In vitro PDT phototoxicity (MTT assay) with ABCG2 modulators; format: cell-based, human; details: BCC-1 cells (ABCG2+), 0.4 μM HPPH, 10 μM imatinib mesylate
# [14] = system: FaDu cells; test: as above; format: cell-based, human; details: FaDu cells (lack ABCG2), 0.8 μM HPPH, 10 or 20 μM imatinib mesylate
# [15] = system: Colo 26 cells; test: Photosensitizer accumulation with ABCG2 modulators; format: cell-based, murine; details: 0.8 mM ALA, with vs without imatinib mesylate
# Procedure: as §1
# [16] = system: RIF-1 tumors; test: HPPH levels in tumor, skin and muscle of tumor-bearing mice; format: in vivo, C3H/HeJCr mice; details: same regimen as tumor levels, 24 hours after HPPH
# Procedure: as §2
# [17] = system: HEK-293 R482 cells; test: Photosensitizer accumulation with ABCG2 modulators; format: cell-based; details: 10 μM modulator, 0.8 μM HPPH, four hours, p<0.05
# Procedure: as §1
# [18] = system: HEK-293 pcDNA cells; test: Photosensitizer accumulation with ABCG2 modulators; format: cell-based; details: 10 μM modulator, 0.8 μM HPPH, four hours
# Procedure: as §1
# [19] = system: Colo 26 cells; test: In vitro PDT phototoxicity (MTT assay) with ABCG2 modulators; format: cell-based, murine; details: ALA, 10 μM imatinib mesylate
compound,measurement,setting,value
"C=CC1=C(C)c2cc3[nH]c(cc4nc(cc5[nH]c(cc1n2)c(C)c5CCC(=O)O)C(CCC(=O)O)=C4C)c(C)c3C=C [5-aminolevulinic acid (ALA)-induced PpIX, protoporphyrin IX]",Transport by ABCG2,[1],transports
"COc1ccc2c3c([nH]c2c1)[C@H](C=C(C)C)N1C(=O)[C@@H]2CCCN2C(=O)[C@@H]1C3 [FTC, fumitremorgin C]",Increase of intracellular HPPH levels,[2],~4 fold
same,Increase of HPPH-PDT phototoxicity,[3]; 0.8 μM HPPH,~2 logs
"CCCCCCOC(C)c1c(C)c2cc3nc(c4c5[nH]c(cc6nc(cc1[nH]2)C(C)=C6CC)c(C)c5C(=O)C4)[C@@H](CCC(=O)O)[C@@H]3C (stereo partly shown) [HPPH, 2-[1-hexyloxyethyl]-2-devinyl pyropheophorbide-a]",Time for 50% of the tumors to grow to 400 mm^3,"[4]; HPPH-PDT treatment alone: 0.2 μmol/kg HPPH, 24 hours later 72 J/cm^2 665 nm light at 14 mW/cm^2",6 days
same,Intracellular HPPH level after efflux at 4° C. compared to 37° C.,"[5]; HEK-293 R482 cells, 1 h efflux",significantly (p<0.05) higher
same,"HPPH levels after uptake (0 hour group), ABCG2- HEK-293 pcDNA3 cells compared to ABCG2+ HEK-293 R482 cells",[5]; after 4 h uptake,significantly (p<0.05) higher
same,"Sensitivity to HPPH-PDT, HEK-293 pcDNA cells compared to HEK-293 R482 cells",[6]; no modulator,more sensitive
same,Intracellular HPPH level after efflux at 37° C. compared to 4° C.,[7],significantly (p<0.01) lower
same,Intracellular HPPH level after efflux at 37° C. compared to 4° C.,[8],significantly (p<0.01) lower
same,Substrate for ABCG2,[9],ABCG2 substrate
same,Temperature-dependent changes in efflux of HPPH,[10],no temperature-dependent changes
same,Intracellular HPPH level after efflux at 37° C. compared to 4° C.,[11],significantly (p<0.01) lower
same,HPPH content following efflux at 37° C. and 4° C.,[12],did not differ significantly
C=Cc1c(C)c2cc3nc(c(CC(=O)O)c4[nH]c(cc5nc(cc1[nH]2)C(C)=C5CC)c(C)c4C(=O)O)[C@@H](CCC(=O)O)[C@@H]3C [chlorin e6],Transport by ABCG2,[1],transports
"COc1cc2ncnc(Nc3ccc(F)c(Cl)c3)c2cc1OCCCN1CCOCC1 [gefitnib, N-(3-chloro-4-fluoro-phenyly)-7-methoxy-6(3-morpholin-4-ylpropoxy) quinazolin-4-amine]",Effect on HPPH-PDT phototoxicity,"[3]; 0.8 μM HPPH, CsA 10 μM, gefitinib 5 μM",effective
same,Dark toxicity,[3]; 5 μM,significant dark toxicity
"Cc1ccc(NC(=O)c2ccc(CN3CCN(C)CC3)cc2)cc1Nc1nccc(-c2cccnc2)n1 [imatinib mesylate, 4[(4-methyl-1-piperazininyl)methyl]-N-(4-methyl-3-[(4-(3-pyidinyl)-2-pyrimidinyl)amino)-phenyl] benzamide methane sulfonate]",Effect on intracellular levels of BPD-MA,"[2]; 0.14 μM BPD-MA, with vs without imatinib mesylate",increased
same,Increase of intracellular HPPH levels,[2],~4 fold
same,"Anti-tumor effects of imatinib mesylate alone, without PDT","[4]; brief course, 4 x 200 mg/kg oral gavage",no anti-tumor effects
same,Observable toxicity,"[4]; mouse, in vivo",no observable toxicity
same,Effect on HPPH-PDT phototoxicity,[13],increased
same,Effect on HPPH-PDT phototoxicity,[14],not
same,Effect on phototoxicity of BPD-MA,"[3]; 0.14 μM BPD-MA, 10 μM imatinib mesylate",increased
same,Increase of HPPH-PDT phototoxicity,[3]; 0.8 μM HPPH,~2 logs
same,Effect on phototoxicity of HPPH-lactose-PDT,"[3]; 1.6 μM HPPH-Lactose, 10 μM imatinib mesylate",did not increase
same,Effect on phototoxicity of Photofrin-PDT,"[3]; 2 μg/ml Photofrin, 10 μM imatinib mesylate",did not increase
same,Effect on intracellular levels of ALA-induced PpIX,[15],increased
same,Effect on sensitivity to HPPH-PDT,"[6]; HEK-293 pcDNA3 cells, pretreatment with 10 μM",no effect
same,Effect on HPPH levels in skin and muscle,[16],less effect
same,Effect on intracellular HPPH levels,[17],increased
same,Effect on HPPH accumulation,[18],no effect
same,Effect on phototoxicity of PpIX,[19],increased
C=Cc1c(C)c2cc3nc(c4c5[nH]c(cc6nc(cc1[nH]2)C(C)=C6CC)c(C)c5C(=O)[C@@H]4C(=O)OC)[C@@H](CCC(=O)O)[C@@H]3C [pheophorbide α],Transport by ABCG2,[1],specific substrate
pyropheophorbide-a methyl ester,Transport by ABCG2,[1],transports
